# Patent publication US10538555B2, “Macrocyclic inhibitors of the PD-1/PD-L1 and CD80(B7-1)/PD-L1 protein/protein interactions” (BRISTOL-MYERS SQUIBB COMPANY, priority 2014, dated 2020)
# *1 amine or outer side, *2 acyl side, *3 side chain or, on linkers, in order; H or OH if unused. Where a SMILES comes first, the peptide text is derived from it. Bridges are numbered along the chain shown (N, C = ends). [ ]: non-standard residue; d: D form. ξ: configuration not given here. Trp(βS-Me) = C[C@@H](c1c[nH]c2ccccc12)[C@H](N)C(=O)O; X7 = CCCC[C@@H](C(=O)C[C@@H](CO)C(=O)[*:2])N(C)[*:1]; Phe(3,4,5-F3) = N[C@@H](Cc1cc(F)c(F)c(F)c1)C(=O)O; Phe(3,4-F2) = N[C@@H](Cc1ccc(F)c(F)c1)C(=O)O; Phe(4-F) = N[C@@H](Cc1ccc(F)cc1)C(=O)O; d(cisHyp) = O=C(O)[C@H]1C[C@@H](O)CN1; Bta = N[C@@H](Cc1csc2ccccc12)C(=O)O; NMeY = CN[C@@H](Cc1ccc(O)cc1)C(=O)O; Hyp = O=C(O)[C@@H]1C[C@@H](O)CN1; NMeF = CN[C@@H](Cc1ccccc1)C(=O)O; X1 = O=C([C@H]1COCCN1[*:1])[*:2]; dNMeF = CN[C@H](Cc1ccccc1)C(=O)O; dHyp = O=C(O)[C@H]1C[C@H](O)CN1; NMehSer = CN[C@@H](CCO)C(=O)O; NMeNle = CCCC[C@H](NC)C(=O)O; dPip = O=C(O)[C@H]1CCCCN1; hSer = N[C@@H](CCO)C(=O)O; NMeA = CN[C@@H](C)C(=O)O; Orn = NCCC[C@H](N)C(=O)O; Dab = NCC[C@H](N)C(=O)O; Dap = NC[C@H](N)C(=O)O; ξPip = O=C(O)C1CCCCN1; ξC = NC(CS)C(=O)O; Sar = CNCC(=O)O
# Target: T1, Human PD-L1/PD-1 (Homo sapiens, UniProt Q9NZQ7)
# T1 construct: TVMV protease cleavage site (C); made in house; host or cells: HEK293T cells
# Assay: HTRF Human PD-L1/PD-1 binding assay (PD-1-Ig/PD-L1-His)
# Conditions: PD-L1-His 10 nM, PD-1-Ig 20 nM; class symbol; read-out: HTRF Human PD-L1/PD-1 Binding Assay IC50 Range
# Method in brief: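 HTRF competition using HEK293T-expressed human PD-1(25-167)-Ig at 20 nM and PD-L1(18-239)-His at 10 nM, compound incubated first with PD-L1 for 15 min, then with PD-1 for 15 min. Signal read as 665/620 nm ratio 30 min after adding Eu anti-Ig and APC anti-His antibodies.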
# T1 sequence (Q9NZQ7 with tags, fused parts or gaps): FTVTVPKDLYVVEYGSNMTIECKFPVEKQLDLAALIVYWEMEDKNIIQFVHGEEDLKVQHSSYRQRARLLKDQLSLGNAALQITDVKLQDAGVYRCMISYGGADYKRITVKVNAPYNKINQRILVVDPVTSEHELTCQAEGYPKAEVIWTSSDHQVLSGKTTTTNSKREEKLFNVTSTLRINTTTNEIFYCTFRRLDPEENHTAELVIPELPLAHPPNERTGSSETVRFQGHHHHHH
row,Compound,IC50 [µM]
1,CCCC[C@H]1C(=O)N(C)[C@@H](CCCC)C(=O)N[C@@H](CC(C)C)C(=O)N[C@H](C(=O)NCC(N)=O)CSCC(=O)N[C@@H](Cc2ccc(OC)cc2)C(=O)N(C)[C@@H](C)C(=O)N[C@@H](CC(N)=O)C(=O)N2CCC[C@H]2C(=O)N[C@@H](CO)C(=O)N[C@@H](CCC(N)=O)C(=O)N2C[C@H](O)C[C@H]2C(=O)N[C@@H](Cc2c[nH]c3ccccc23)C(=O)N[C@@H](CO)C(=O)N[C@@H](Cc2c[nH]c3ccccc23)C(=O)N1C [Example 7136] ({CH2CO}-Y(Me)[NMeA]NPSQ[Hyp]WSW[NMeNle][NMeNle]LCG-NH2; thioether N-14),0.001 to 0.0099
2,"CCCC[C@H]1C(=O)N2C[C@@H](O)C[C@@H]2C(=O)N[C@@H](CC(=O)O)C(=O)N[C@@H](C(C)C)C(=O)N(C)[C@@H](Cc2ccccc2)C(=O)N[C@@H](CCC(=O)O)C(=O)N2C[C@@H](O)C[C@@H]2C(=O)N[C@@H](Cc2c[nH]c3ccccc23)C(=O)N[C@@H](Cc2ccc(O)cc2)C(=O)N[C@@H](CCCN)C(=O)N[C@H](C(=O)NCC(N)=O)CSCC(=O)N[C@@H](Cc2ccc(F)c(F)c2)C(=O)N(C)[C@@H](Cc2ccccc2)C(=O)N1C [Example 9278] ({CH2CO}-[Phe(3,4-F2)][NMeF][NMeNle][dHyp]DV[NMeF]E[dHyp]WY[Orn]CG-NH2; thioether N-13)",0.001 to 0.0099
3,CCCC[C@H]1C(=O)N(C)[C@@H](CCCC)C(=O)N[C@@H](CCCNC(=N)N)C(=O)NC(C(=O)NCC(N)=O)CSCC(=O)N[C@@H](Cc2ccc(O)cc2)C(=O)N(C)[C@@H](C)C(=O)N[C@@H](CC(N)=O)C(=O)N2CCC[C@H]2C(=O)N[C@@H](CO)C(=O)N[C@@H](CCO)C(=O)N2CCC[C@H]2C(=O)N[C@@H](Cc2c[nH]c3ccccc23)C(=O)N[C@@H](CO)C(=O)N[C@@H](Cc2c[nH]c3ccccc23)C(=O)N1C (stereo partly drawn) [Example 10036] ({CH2CO}-Y[NMeA]NPS[hSer]PWSW[NMeNle][NMeNle]R[ξC]G-NH2; thioether N-14),0.001 to 0.0099
4,CCCC[C@H]1C(=O)N(C)[C@@H](CCCC)C(=O)C[C@@H](CO)C(=O)NC(C(=O)NCC(N)=O)CSCC(=O)N[C@@H](Cc2ccc(O)cc2)C(=O)N(C)[C@@H](C)C(=O)N[C@@H](CC(N)=O)C(=O)N2CCC[C@H]2C(=O)N[C@@H](CC(N)=O)C(=O)N[C@@H](CC(C)C)C(=O)N2CCC[C@H]2C(=O)N[C@@H](Cc2c[nH]c3ccccc23)C(=O)N[C@@H](CO)C(=O)N[C@@H](Cc2csc3ccccc23)C(=O)N1C (stereo partly drawn) [Example 9141] ({CH2CO}-Y[NMeA]NPNLPWS[Bta][NMeNle][X7][ξC]G-NH2; thioether N-13),0.01 to 0.0999
5,CCCC[C@H]1C(=O)N(C)[C@@H](CCCC)C(=O)N[C@@H](CCCN)C(=O)N[C@H](C(=O)NCC(N)=O)CSCC(=O)N[C@@H](Cc2ccc(O)cc2)C(=O)N2CCCCC2C(=O)N[C@@H](CC(=O)O)C(=O)N2CCC[C@H]2C(=O)N[C@@H](Cc2c[nH]cn2)C(=O)N[C@@H](CCC(=O)O)C(=O)N2C[C@H](O)C[C@H]2C(=O)N[C@@H](Cc2c[nH]c3ccccc23)C(=O)N[C@@H](CCN)C(=O)N[C@@H](Cc2c[nH]c3ccccc23)C(=O)N1C (stereo partly drawn) [Example 1531] ({CH2CO}-Y[ξPip]DPHE[Hyp]W[Dab]W[NMeNle][NMeNle][Orn]CG-NH2; thioether N-14),0.01 to 0.0999
6,CCCC[C@H]1C(=O)N(C)[C@@H](CCCC)C(=O)N[C@@H](CCCN)C(=O)N[C@H](C(=O)NCC(N)=O)CSCC(=O)N[C@@H](Cc2ccc(OC)cc2)C(=O)N(C)[C@@H](C)C(=O)N[C@@H](CCN)C(=O)N2CCC[C@H]2C(=O)N[C@@H](Cc2cnc[nH]2)C(=O)N[C@@H](CCC(=O)O)C(=O)N2C[C@H](O)C[C@H]2C(=O)N[C@@H](Cc2c[nH]c3ccccc23)C(=O)N[C@@H](CC(=O)O)C(=O)N[C@@H](Cc2c[nH]c3ccccc23)C(=O)N1C [Example 7104] ({CH2CO}-Y(Me)[NMeA][Dab]PHE[Hyp]WDW[NMeNle][NMeNle][Orn]CG-NH2; thioether N-14),0.01 to 0.0999
7,"CCCC[C@H]1C(=O)N2CCC[C@@H]2C(=O)N[C@@H](CC(=O)O)C(=O)N[C@@H](C(C)C)C(=O)N(C)[C@@H](Cc2ccccc2)C(=O)N[C@@H](CCC(=O)O)C(=O)N2CCOC[C@@H]2C(=O)N[C@@H](Cc2c[nH]c3ccccc23)C(=O)N[C@@H](Cc2ccc(O)cc2)C(=O)N[C@@H](CN)C(=O)N[C@H](C(=O)NCC(N)=O)CSCC(=O)N[C@@H](Cc2cc(F)c(F)c(F)c2)C(=O)N(C)[C@@H](Cc2ccc(O)cc2)C(=O)N1C [Example 10617] ({CH2CO}-[Phe(3,4,5-F3)][NMeY][NMeNle][dP]DV[NMeF]E[X1]WY[Dap]CG-NH2; thioether N-13)",0.01 to 0.0999

# The next lines start with the values.
row,IC50 [µM],Compound
1,0.01 to 0.0999,CCCC[C@H]1C(=O)N(C)[C@@H](CCCC)C(=O)N[C@@H](CCC(=O)O)C(=O)N[C@H](C(=O)NCC(N)=O)CSCC(=O)N[C@@H](Cc2ccc(O)cc2)C(=O)N(C)[C@@H](C)C(=O)N[C@@H](CC(N)=O)C(=O)N2CCC[C@H]2C(=O)N[C@@H](CN)C(=O)N[C@@H](CCC(=O)O)C(=O)N2C[C@H](O)C[C@H]2C(=O)N[C@@H](Cc2c[nH]c3ccccc23)C(=O)N[C@@H](CCN)C(=O)N[C@@H](Cc2c[nH]c3ccccc23)C(=O)N1C [Example 5207] ({CH2CO}-Y[NMeA]NP[Dap]E[Hyp]W[Dab]W[NMeNle][NMeNle]ECG-NH2; thioether N-14)
2,0.01 to 0.0999,"CCCC[C@H]1C(=O)N2CCC[C@@H]2C(=O)N[C@@H](CC(=O)O)C(=O)N[C@@H](C(C)C)C(=O)N(C)[C@@H](Cc2ccccc2)C(=O)N[C@@H](CC(=O)O)C(=O)N2CCC[C@@H]2C(=O)N[C@@H](Cc2c[nH]c3ccccc23)C(=O)N[C@@H](Cc2ccc(O)cc2)C(=O)N[C@@H](CCCCN)C(=O)N[C@H](C(=O)NCC(N)=O)CSCC(=O)N[C@@H](Cc2cc(F)c(F)c(F)c2)C(=O)N(C)[C@@H](Cc2ccccc2)C(=O)N1C [Example 10171] ({CH2CO}-[Phe(3,4,5-F3)][NMeF][NMeNle][dP]DV[NMeF]D[dP]WYKCG-NH2; thioether N-13)"
3,0.1 to 0.99,CCCC[C@H]1C(=O)N2CCC[C@@H]2C(=O)N[C@@H](CO)C(=O)N[C@@H](C)C(=O)N(C)[C@@H](Cc2ccccc2)C(=O)N[C@@H](Cc2ccc(O)cc2)C(=O)N(C)CC(=O)N[C@@H](Cc2c[nH]c3ccccc23)C(=O)N[C@@H](Cc2ccc(O)cc2)C(=O)N[C@@H](CC(C)C)C(=O)N[C@H](C(=O)NCC(N)=O)CSCC(=O)N[C@@H](Cc2ccccc2)C(=O)N(C)[C@@H](Cc2ccccc2)C(=O)N1C [Example 10054] ({CH2CO}-F[NMeF][NMeNle][dP]SA[NMeF]Y[Sar]WYLCG-NH2; thioether N-13)
4,0.001 to 0.0099,"CCCC[C@H]1C(=O)N2C[C@H](O)C[C@@H]2C(=O)N[C@@H](CC(=O)O)C(=O)N[C@@H](C(C)C)C(=O)N(C)[C@H](Cc2ccccc2)C(=O)N[C@@H](CCCCN)C(=O)N2C[C@H](O)C[C@@H]2C(=O)N[C@@H](Cc2c[nH]c3ccccc23)C(=O)N[C@@H](Cc2ccc(O)cc2)C(=O)N[C@@H](CCCN)C(=O)N[C@H](C(=O)NCC(N)=O)CSCC(=O)N[C@@H](Cc2ccc(F)c(F)c2)C(=O)N(C)[C@@H](Cc2ccccc2)C(=O)N1C [Example 9307] ({CH2CO}-[Phe(3,4-F2)][NMeF][NMeNle][d(cisHyp)]DV[dNMeF]K[d(cisHyp)]WY[Orn]CG-NH2; thioether N-13)"
5,0.01 to 0.0999,CCCC[C@H]1C(=O)N(C)[C@@H](C)C(=O)N[C@@H](CCCNC(=N)N)C(=O)NC(C(=O)NCC(N)=O)CSCC(=O)N[C@@H](Cc2ccc(O)cc2)C(=O)N(C)[C@@H](C)C(=O)N[C@@H](CC(N)=O)C(=O)N2CCC[C@H]2C(=O)N[C@@H](CO)C(=O)N[C@H](CC(C)C)C(=O)N2C[C@H](O)C[C@H]2C(=O)N[C@@H](Cc2c[nH]c3ccccc23)C(=O)N[C@@H](CO)C(=O)N[C@@H](Cc2csc3ccccc23)C(=O)N1C (stereo partly drawn) [Example 9116] ({CH2CO}-Y[NMeA]NPS[dL][Hyp]WS[Bta][NMeNle][NMeA]R[ξC]G-NH2; thioether N-14)

# Same assay, conditions: PD-L1-His 10 nM, PD-1-Ig 20 nM; read-out: HTRF Human PD-L1/PD-1 Binding Assay IC50
row,IC50 [µM],Compound
1,0.015,CCCC[C@H]1C(=O)N(C)[C@@H](CCCC)C(=O)N[C@@H](CC(C)C)C(=O)N[C@H](C(=O)NCC(N)=O)CSCC(=O)N[C@@H](Cc2ccc(O)cc2)C(=O)N(C)[C@@H](C)C(=O)N[C@@H](CC(N)=O)C(=O)N2CCC[C@H]2C(=O)N[C@@H](CN)C(=O)N[C@@H](CC(C)C)C(=O)N2C[C@H](O)C[C@H]2C(=O)N[C@@H]([C@@H](C)c2c[nH]c3ccccc23)C(=O)N[C@@H](CO)C(=O)N[C@@H](Cc2c[nH]c3ccccc23)C(=O)N1C [Example 10530] ({CH2CO}-Y[NMeA]NP[Dap]L[Hyp][Trp(βS-Me)]SW[NMeNle][NMeNle]LCG-NH2; thioether N-14)
2,0.144,CCCC[C@H]1C(=O)N2CCC[C@@H]2C(=O)N[C@@H](CC(=O)O)C(=O)N[C@@H](C(C)C)C(=O)N(C)[C@@H](CCOC)C(=O)N[C@@H](Cc2ccc(O)cc2)C(=O)N2CCCC[C@@H]2C(=O)N[C@@H](Cc2c[nH]c3ccccc23)C(=O)N[C@@H](Cc2ccc(O)cc2)C(=O)N[C@@H](CCCN)C(=O)N[C@H](C(=O)NCC(N)=O)CSCC(=O)N[C@@H](Cc2ccc(F)cc2)C(=O)N(C)[C@@H](Cc2ccccc2)C(=O)N1C [Example 9222] ({CH2CO}-[Phe(4-F)][NMeF][NMeNle][dP]DV[NMehSer](Me)Y[dPip]WY[Orn]CG-NH2; thioether N-13)
3,0.0056,CCCC[C@H]1C(=O)N(C)[C@@H](CCCC)C(=O)N[C@@H](CC(C)C)C(=O)N[C@H](C(=O)NCC(N)=O)CSCC(=O)N[C@@H](Cc2ccc(OC)cc2)C(=O)N(C)[C@@H](C)C(=O)N[C@@H](CC(N)=O)C(=O)N2CCC[C@H]2C(=O)N[C@@H](Cc2c[nH]cn2)C(=O)N[C@@H](CCC(N)=O)C(=O)N2C[C@H](O)C[C@H]2C(=O)N[C@@H](Cc2c[nH]c3ccccc23)C(=O)N[C@@H](CO)C(=O)N[C@@H](Cc2c[nH]c3ccccc23)C(=O)N1C [Example 7135] ({CH2CO}-Y(Me)[NMeA]NPHQ[Hyp]WSW[NMeNle][NMeNle]LCG-NH2; thioether N-14)
